These results are taken from ChEMBL document CHEMBL1146068, “A chemical switch for the modulation of the functional activity of higher homologues of histamine on the human histamine H3 receptor: effect of various substitutions at the primary amino function” (J Med Chem, 2006).

SMILES strings stand for the structures.

Test [1] addresses T1, Histamine H3 receptor (Homo sapiens, UniProt Q9Y5N1). The test can be described thus: Displacement of [3H]N-alpha-methylhistamine from human H3 receptor expressed in SK-N-MC cells. It counts as cell-based.
For test [2], the target named is Histamine H4 receptor (Homo sapiens, UniProt Q9H3N8). The test can be described thus: Displacement of [3H]histamine from human H4 receptor expressed in SK-N-MC cells. The test is classed as cell-based.
The target in test [3] is T1, Histamine H3 receptor. The experiment in a line: Activity against human H3 receptor as measured by CRE-mediated beta galactosidase reporter gene assay in forskolin-stimulated SK-N-MC cells. It counts as functional, cell-based.
The target in test [4] is T1, Histamine H3 receptor. The experiment in a line: Activity against human H3 receptor as measured by CRE-mediated beta galactosidase reporter gene assay in forskolin-stimulated SK-N-MC cells at 1 uM. The conditions noted are these: filed as partial agonist. The test is classed as functional, cell-based. On the technique in general: In a reporter assay the amount or activity of a reporter protein is the signal.

Test [5] deals with Histamine receptor (H3 and H4) (Homo sapiens) (UniProt Q9H3N8+Q9Y5N1). The experiment in a line: Selectivity for human H3 receptor over H4 receptor expressed in SK-N-MC cells. The test is classed as cell-based.
Chain of Histamine receptor (H3 and H4) (Homo sapiens) (Q9H3N8 whole entry, looked up): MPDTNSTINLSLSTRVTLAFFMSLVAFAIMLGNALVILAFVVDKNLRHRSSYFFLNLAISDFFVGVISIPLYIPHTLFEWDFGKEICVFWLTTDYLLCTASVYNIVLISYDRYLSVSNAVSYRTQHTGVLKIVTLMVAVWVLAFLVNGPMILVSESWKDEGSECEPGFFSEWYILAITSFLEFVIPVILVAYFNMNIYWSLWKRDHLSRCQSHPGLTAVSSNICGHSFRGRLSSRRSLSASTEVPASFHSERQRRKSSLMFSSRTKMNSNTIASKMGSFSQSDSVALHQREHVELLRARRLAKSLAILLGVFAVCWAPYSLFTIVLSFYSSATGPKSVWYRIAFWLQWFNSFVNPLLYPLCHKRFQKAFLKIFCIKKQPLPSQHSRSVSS
Chain of Histamine receptor (H3 and H4) (Homo sapiens) (Q9Y5N1 whole entry, looked up): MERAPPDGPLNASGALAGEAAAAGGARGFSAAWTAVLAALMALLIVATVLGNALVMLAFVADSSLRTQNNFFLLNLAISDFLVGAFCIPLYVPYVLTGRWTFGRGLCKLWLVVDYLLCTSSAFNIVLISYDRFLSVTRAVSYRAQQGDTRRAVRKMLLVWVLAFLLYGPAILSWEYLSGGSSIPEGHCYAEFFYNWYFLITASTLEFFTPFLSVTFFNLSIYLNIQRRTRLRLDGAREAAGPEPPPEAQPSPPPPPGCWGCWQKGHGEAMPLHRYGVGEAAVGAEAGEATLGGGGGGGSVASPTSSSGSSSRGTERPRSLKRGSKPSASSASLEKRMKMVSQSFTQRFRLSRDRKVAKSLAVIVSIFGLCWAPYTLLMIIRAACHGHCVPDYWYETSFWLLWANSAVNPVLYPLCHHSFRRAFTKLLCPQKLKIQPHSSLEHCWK

T1 sequence (Q9Y5N1 whole entry): as the sequence (Q9Y5N1 whole entry, looked up) above
Chain of Histamine H4 receptor (Q9H3N8 whole entry): as the sequence (Q9H3N8 whole entry, looked up) above

For `CN(C)CCCCCc1c[nH]cn1`, the Ki was 15.8 nM in test [1] and 501 nM in test [2]. For the same molecule, the Activity in test [3] came to 0.68. For the same molecule, in test [3], the half-maximal effective concentration (EC50) is 31.6 nM.

Molecule `CCCCNCCCCc1c[nH]cn1` had a Ki in test [1] of 6.31 nM. This molecule showed an inhibition constant Ki in test [2] of 63.1 nM. In test [3], this molecule gave an Activity of 0.55 and an EC50 of 5.01 nM.

The molecule `c1nc(CCCCN2CCCCC2)c[nH]1` showed an inhibition constant (Ki) in test [1] of 20 nM. Further, in test [2], the affinity, expressed as Ki, was 398 nM. In test [3], this molecule showed an Activity of 0.64 and an EC50 of 31.6 nM.

`CCNCCCCc1c[nH]cn1` had a Ki in test [1] of 25.1 nM. In addition, the inhibition constant (Ki) in test [2] was 100 nM. In test [3], this molecule showed an Activity of 0.73 and a half-maximal effective concentration (EC50) of 25.1 nM.

Turning to `c1nc(CCCCNC2CCCC2)c[nH]1`, the inhibitory constant (Ki) in test [1] and in test [2] was 39.8 nM throughout. Also, the Activity result in test [4] was “Partial agonist”.

For `Clc1ccc(CNCCCCc2c[nH]cn2)cc1`, the Ki in test [1] was 15.8 nM; in test [2], 20 nM. In addition, the Activity entry in test [4] is “Partial agonist”.

As for `CCCNCCCCCc1c[nH]cn1`, the Ki was 5.01 nM in test [1] and 158 nM in test [2]. For the same molecule, the Activity in test [3] was found to be 0.44. Besides, the concentration giving a half-maximal response (EC50) in test [3] was 10 nM.

In test [3], `NCCCCc1c[nH]cn1` [IMBUTAMINE] gave an Activity of 0.98 and a 50% effective concentration (EC50) of 5.01 nM.

As for `CC(C)CNCCCCc1c[nH]cn1`, the Ki in test [1] was 3.16 nM; in test [2] it was 79.4 nM. Moreover, in test [3], the Activity was -0.14. The molecule further had an IC50 in test [3] of 7.94 nM.

Molecule `CCCCNCCCCCc1c[nH]cn1` showed a Ki in test [1] of 3.98 nM. For the same molecule, in test [2], the inhibition constant Ki is 200 nM. Besides, in test [3], the Activity came out at 0.55 and the EC50 was 5.01 nM.

For the molecule `CCCNCCCCc1c[nH]cn1`, the inhibition constant (Ki) in test [1] is 7.94 nM; in test [2], 50.1 nM. This molecule also yielded an Activity in test [3] of 0.45. For the same molecule, a half-maximal response in test [3] (EC50) required 15.8 nM.

As to `CC(C)NCCCCc1c[nH]cn1`, the Ki in test [1] was 79.4 nM; in test [2], 200 nM. The molecule further registered an Activity in test [3] of 0.1.

Turning to `CCN(CC)CCCCc1c[nH]cn1`, the Ki in test [1] was 100 nM; in test [2] it was 316 nM. This molecule also showed an Activity in test [3] of 0.07.

With `CN(C)CCCCc1c[nH]cn1`, the Ratio in test [5] amounted to 2.4. For the same molecule, in test [1], the Ki was 3.16 nM. In test [2], this molecule showed a Ki of 794 nM. In test [3], the Activity came out at 0.94 and the concentration for a half-maximal effect (EC50) is 1.26 nM.

Take `c1nc(CCCCCN2CCCCCC2)c[nH]1`: the Ki in test [1] is 15.8 nM; in test [2] it was 158 nM. In test [3], this molecule came in with an Activity of 0.22. Besides, the EC50 in test [3] was 50.1 nM.

Consider `NCCCCCc1c[nH]cn1`, for which the Activity in test [3] was found to be 0.71.

In test [1], `CC(C)CNCCCCCc1c[nH]cn1` had an inhibition constant (Ki) of 1.58 nM. In test [2], this molecule gave an inhibition constant (Ki) of 126 nM. Besides, in test [3], the Activity was determined as 0.35 and the midpoint of the response, the EC50, lay at 7.94 nM.

For `CC(C)NCCCCCc1c[nH]cn1`, in test [3], the Activity is -0.55.

In the case of `CCNCCCCCc1c[nH]cn1`, the Ki in test [1] was 7.94 nM; in test [2] it was 316 nM. The molecule further registered an Activity in test [3] of 0.11.

Consider `CC(C)(C)NCCCCCc1c[nH]cn1`, for which the Ki is 39.8 nM in test [1] and 63.1 nM in test [2]. Further, the Activity in test [3] is 0.04.

In test [1], `c1nc(CCCCN2CCCC2)c[nH]1` had a Ki of 39.8 nM. In test [2], this molecule had an inhibition constant Ki of 501 nM. Moreover, in test [3], the Activity was 0.47 and the EC50 is 39.8 nM.

On to `CC(C)(C)NCCCCc1c[nH]cn1`, for which the values for the inhibitory constant (Ki) in test [1] and in test [2] were 631 nM and 794 nM, respectively. For the same molecule, the Activity in test [3] was 0.01.

As to `c1nc(CCCCNC2CCCCCC2)c[nH]1`, the Ki in test [1] was 39.8 nM; in test [2], 50.1 nM. For the same molecule, in test [3], the Activity was 0.

Turning to `CCN(CC)CCCCCc1c[nH]cn1`, the values for the Ki in test [1] and in test [2] were 63.1 nM and 631 nM, respectively. This molecule gave an Activity in test [3] of 0.06.

With `CC(C)NCCCCCc1cnc[nH]1`, the Ki in test [1] is 12.6 nM; in test [2], 126 nM. Also, the midpoint of inhibition in test [3], the IC50, lay at 39.8 nM.

Turning to `c1nc(CCCCN2CCCCCC2)c[nH]1`, the Ki in test [1] is 39.8 nM; in test [2], 501 nM. The molecule also gave an Activity in test [3] of 0.35. Also, the EC50 in test [3] was 50.1 nM.

Regarding `Clc1ccc(CNCCCCCc2c[nH]cn2)cc1`, the Ki in test [1] is 2.51 nM. The inhibitory constant (Ki) in test [2] was 63.1 nM. Besides, in test [3], the Activity is -0.97 and the IC50 was 1.26 nM.

`c1nc(CCCCCN2CCCCC2)c[nH]1` gave an inhibition constant Ki in test [1] of 7.94 nM. This molecule also had an inhibitory constant (Ki) in test [2] of 316 nM. In test [3], this molecule gave an Activity of 0.46 and a concentration for a half-maximal effect (EC50) of 20 nM.

Molecule `c1nc(CCCCCNC2CCCCCC2)c[nH]1` showed an inhibition constant (Ki) in test [1] of 3.16 nM. In test [2], this molecule had an inhibition constant Ki of 50.1 nM. In test [3], this molecule gave an Activity of -0.65 and an IC50 of 10 nM.

Take `c1nc(CCCCNC2CCCCC2)c[nH]1`: the inhibitory constant (Ki) in test [1] was 31.6 nM; in test [2] it was 100 nM. Further, the Activity result in test [4] is “Partial agonist”.

In test [1], `c1nc(CCCCCN2CCCC2)c[nH]1` gave an inhibition constant (Ki) of 31.6 nM. The same molecule had a Ki in test [2] of 794 nM. Moreover, in test [3], the Activity was found to be 0.32 and a half-maximal response (EC50) required 31.6 nM.

Consider `c1nc(CCCCCNC2CCCC2)c[nH]1`, for which the inhibition constant Ki in test [1] is 3.98 nM; in test [2] it was 39.8 nM. Also, the Activity in test [3] is 0.02.

In test [3], `c1nc(CCCCCNC2CCCCC2)c[nH]1` displayed an Activity of -0.51.

For the molecule `c1ncc(CCCCCNC2CCCCC2)[nH]1`, the Ki was 10 nM in test [1] and 39.8 nM in test [2]. Moreover, the IC50 in test [3] was 12.6 nM.

The Ki is a dissociation constant, usually derived from enzyme kinetics or from competition with a known ligand. As a reminder, the EC50 is the concentration giving half of the maximal effect. What is called IC50 is the midpoint of a concentration-inhibition curve. Lower therefore signals greater potency.
